The source of these data is paper PMC11212140, “Molecular Bidents with Two Electrophilic Warheads as a New Pharmacological Modality” (ACS Central Science, 2024).

In one assay the test system is T1, CHED.
T1 construct: purchased ActivX Biosciences (KiNativ)
Nature of the assay: KiNativ profiling in H3255 cells. The note with it: 2.5 µM; Lys2; DIKCSNILLNNR
The assay is classed as cell-based, human.

A further assay concerns the target BTK (Homo sapiens, UniProt Q06187). Nature of the assay: Z'-LYTE biochemical assay. To be noted: read-out: IC50 (nM) against BTK. The text has this: (§1) Table S2. Biochemical activities against a panel of kinase targets […]
(§2) aIC50 (nM) against EGFR L858R, BTK, JAK3, ITK and BLK were obtained with Z’-LYTE biochemical assay. bIC50 (nM) against MEK5 was obtained with LanthaScreen Binding activity assay. c Kd (nM) of MKK7 were obtained from KdELECT assays (DiscoverX). […]
(§3) (1 picture or pasted object on this page, not shown here)

For another assay, the target named is BLK (Homo sapiens, UniProt P51451). Kind of assay: Z'-LYTE biochemical assay. To be noted: read-out: IC50 (nM) against BLK.
Description: as §1, §2, §3

A further assay deals with EGFR L858R (Homo sapiens, UniProt P00533, L858R). Nature of the assay: Z'-LYTE biochemical assay. The note with it: read-out: IC50 (nM) against EGFR L858R.
Description: as §1, §2, §3

In a further assay the target is ITK (Homo sapiens, UniProt Q08881). Nature of the assay: Z'-LYTE biochemical assay. The note with it: read-out: IC50 (nM) against ITK.
Description: as §1, §2, §3

A further assay deals with JAK3 (Homo sapiens, UniProt P52333). Nature of the assay: Z'-LYTE biochemical assay. To be noted: read-out: IC50 (nM) against JAK3.
Description: as §1, §2, §3

The test system of the next assay is T2, EGFR^L858R kinase domain.
T2 construct: purified recombinant EGFR^L858R kinase domain treated by the compounds; made in house
Nature of the assay: Determining sites of probe modification by MS. The assay is classed as biochemical. The note with it: EGFR^L858R protein, mass spectrometry. An excerpt:
Covalent docking (CovDock in Schrodinger software suite) was used to predict binding modes and scores of designed bident and mono-valent molecules. Thorough mode was used for docking and top 5 poses for each molecule were inspected visually to identify the most likely binding conformation based on the known core scaffold binding mode. Hinge hydrogen bonds of the core scaffolds were used as constraints in docking calculations. […]
reactive residues, only one cysteine was specified for covalent bond formation during docking of […]
for bident molecules, a proper binding mode required the other warhead in close proximity with its intended reactive cysteine. To obtain the final predicted binding mode in Figure 2B, the pre-reaction cysteine and warhead were manually linked with proper chemical bond, and the complex was optimized using receptor-ligand complex optimization protocol in Schrodinger suite with default settings. The final optimized complex was compared against the original binding mode to ensure minimal changes to the ligand and receptor residue conformations. […]
EGFR protein was treated with indicated probe for 2 hours at 30 °C in 50 mM HEPES buffer 100 mM NaCl pH 7.5. […] Peptides were desalted by C18 and analyzed by nanoLC-MS using a Waters NanoAcquity UPLC (Waters, Milford, MA) interfaced to a Orbitrap QExactive HF mass spectrometer (ThermoFisher Scientific, San Jose, CA). […]

JAK3, sequence (P52333 whole entry): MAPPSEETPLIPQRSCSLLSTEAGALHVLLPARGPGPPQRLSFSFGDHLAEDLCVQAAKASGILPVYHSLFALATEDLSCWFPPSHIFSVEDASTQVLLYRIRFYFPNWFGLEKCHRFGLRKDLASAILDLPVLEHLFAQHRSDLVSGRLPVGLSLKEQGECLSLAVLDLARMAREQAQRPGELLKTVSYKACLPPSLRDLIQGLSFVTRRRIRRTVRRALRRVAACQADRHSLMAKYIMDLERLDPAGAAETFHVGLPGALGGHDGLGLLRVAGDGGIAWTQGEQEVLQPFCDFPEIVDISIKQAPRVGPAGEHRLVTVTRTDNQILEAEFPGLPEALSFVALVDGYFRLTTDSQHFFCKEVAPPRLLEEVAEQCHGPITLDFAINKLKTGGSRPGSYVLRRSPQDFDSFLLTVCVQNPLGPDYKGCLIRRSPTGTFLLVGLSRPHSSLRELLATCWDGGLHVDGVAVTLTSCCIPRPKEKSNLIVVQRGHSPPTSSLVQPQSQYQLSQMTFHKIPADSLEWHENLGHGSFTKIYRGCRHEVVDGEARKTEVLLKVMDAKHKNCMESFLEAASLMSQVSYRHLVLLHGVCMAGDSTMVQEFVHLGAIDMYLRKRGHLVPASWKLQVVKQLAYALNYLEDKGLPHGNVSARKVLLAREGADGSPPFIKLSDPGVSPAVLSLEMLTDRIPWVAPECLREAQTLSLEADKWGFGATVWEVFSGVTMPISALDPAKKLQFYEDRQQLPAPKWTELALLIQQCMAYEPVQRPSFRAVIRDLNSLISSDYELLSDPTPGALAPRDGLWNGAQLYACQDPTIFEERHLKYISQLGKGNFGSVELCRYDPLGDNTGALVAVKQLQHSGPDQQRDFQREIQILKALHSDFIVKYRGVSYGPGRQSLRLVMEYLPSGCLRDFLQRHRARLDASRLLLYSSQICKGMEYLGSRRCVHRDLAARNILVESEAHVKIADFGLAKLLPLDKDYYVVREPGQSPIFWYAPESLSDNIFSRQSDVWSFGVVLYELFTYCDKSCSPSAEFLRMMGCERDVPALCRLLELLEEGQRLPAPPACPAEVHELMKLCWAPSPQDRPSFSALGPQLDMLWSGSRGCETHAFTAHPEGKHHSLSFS
EGFR L858R, sequence (P00533 25-1210 L858R): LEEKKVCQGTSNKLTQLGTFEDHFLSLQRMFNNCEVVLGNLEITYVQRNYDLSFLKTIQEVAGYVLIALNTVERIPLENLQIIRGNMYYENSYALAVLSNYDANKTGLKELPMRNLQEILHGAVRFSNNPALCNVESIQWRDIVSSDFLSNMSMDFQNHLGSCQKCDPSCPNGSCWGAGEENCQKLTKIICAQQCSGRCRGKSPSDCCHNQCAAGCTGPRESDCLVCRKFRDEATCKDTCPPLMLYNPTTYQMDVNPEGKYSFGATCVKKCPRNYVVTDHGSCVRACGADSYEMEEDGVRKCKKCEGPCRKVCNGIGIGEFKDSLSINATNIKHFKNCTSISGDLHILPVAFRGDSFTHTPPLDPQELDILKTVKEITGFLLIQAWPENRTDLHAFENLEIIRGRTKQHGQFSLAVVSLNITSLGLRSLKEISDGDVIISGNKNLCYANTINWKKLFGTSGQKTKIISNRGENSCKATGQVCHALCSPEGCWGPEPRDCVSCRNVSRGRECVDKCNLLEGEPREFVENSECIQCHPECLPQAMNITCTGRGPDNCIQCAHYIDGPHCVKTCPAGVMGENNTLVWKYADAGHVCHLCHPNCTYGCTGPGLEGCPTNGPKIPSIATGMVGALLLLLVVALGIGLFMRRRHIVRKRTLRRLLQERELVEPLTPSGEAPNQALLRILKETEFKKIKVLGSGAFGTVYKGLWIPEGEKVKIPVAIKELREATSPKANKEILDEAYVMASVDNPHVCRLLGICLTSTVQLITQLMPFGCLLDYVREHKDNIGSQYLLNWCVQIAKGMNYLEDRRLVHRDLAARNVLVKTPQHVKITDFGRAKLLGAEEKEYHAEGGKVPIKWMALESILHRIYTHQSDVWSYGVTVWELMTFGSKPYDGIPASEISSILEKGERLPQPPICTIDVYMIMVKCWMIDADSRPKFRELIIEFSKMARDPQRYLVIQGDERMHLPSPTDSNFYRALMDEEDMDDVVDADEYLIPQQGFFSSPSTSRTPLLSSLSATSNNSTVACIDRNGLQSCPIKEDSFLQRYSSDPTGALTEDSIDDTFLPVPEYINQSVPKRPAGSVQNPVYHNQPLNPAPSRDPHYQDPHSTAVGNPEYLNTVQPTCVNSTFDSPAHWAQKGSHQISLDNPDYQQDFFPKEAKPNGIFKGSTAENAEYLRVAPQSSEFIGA
BLK, sequence (P51451 whole entry): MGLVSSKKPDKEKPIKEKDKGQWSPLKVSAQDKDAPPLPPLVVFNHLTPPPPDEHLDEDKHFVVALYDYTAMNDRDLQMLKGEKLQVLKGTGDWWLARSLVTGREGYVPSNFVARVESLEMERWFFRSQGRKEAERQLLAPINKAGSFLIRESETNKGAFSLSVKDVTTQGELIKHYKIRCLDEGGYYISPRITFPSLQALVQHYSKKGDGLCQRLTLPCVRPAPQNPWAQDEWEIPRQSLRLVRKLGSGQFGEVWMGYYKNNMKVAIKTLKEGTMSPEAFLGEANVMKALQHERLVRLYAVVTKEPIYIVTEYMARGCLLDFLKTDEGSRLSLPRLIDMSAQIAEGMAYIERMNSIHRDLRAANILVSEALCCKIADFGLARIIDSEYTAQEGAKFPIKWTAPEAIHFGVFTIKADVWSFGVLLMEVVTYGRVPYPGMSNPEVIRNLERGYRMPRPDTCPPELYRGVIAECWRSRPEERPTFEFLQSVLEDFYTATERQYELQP
BTK, sequence (Q06187 whole entry): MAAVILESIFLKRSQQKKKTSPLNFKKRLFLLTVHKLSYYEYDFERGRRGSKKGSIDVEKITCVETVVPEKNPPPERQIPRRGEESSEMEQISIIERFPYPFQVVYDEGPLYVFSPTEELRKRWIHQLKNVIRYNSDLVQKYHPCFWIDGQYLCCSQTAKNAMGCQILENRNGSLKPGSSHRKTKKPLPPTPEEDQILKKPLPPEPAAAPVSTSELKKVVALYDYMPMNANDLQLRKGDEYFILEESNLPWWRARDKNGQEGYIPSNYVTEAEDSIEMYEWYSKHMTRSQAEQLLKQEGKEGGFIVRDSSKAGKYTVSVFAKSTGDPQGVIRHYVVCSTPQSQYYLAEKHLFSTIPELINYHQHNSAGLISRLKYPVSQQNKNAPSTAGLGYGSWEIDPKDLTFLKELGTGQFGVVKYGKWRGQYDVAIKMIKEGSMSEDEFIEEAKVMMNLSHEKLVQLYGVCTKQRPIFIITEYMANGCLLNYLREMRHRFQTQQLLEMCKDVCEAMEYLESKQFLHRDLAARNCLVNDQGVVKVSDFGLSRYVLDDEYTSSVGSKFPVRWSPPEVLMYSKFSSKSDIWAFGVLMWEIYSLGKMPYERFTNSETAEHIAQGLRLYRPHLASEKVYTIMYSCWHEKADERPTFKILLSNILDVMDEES
ITK, sequence (Q08881 whole entry): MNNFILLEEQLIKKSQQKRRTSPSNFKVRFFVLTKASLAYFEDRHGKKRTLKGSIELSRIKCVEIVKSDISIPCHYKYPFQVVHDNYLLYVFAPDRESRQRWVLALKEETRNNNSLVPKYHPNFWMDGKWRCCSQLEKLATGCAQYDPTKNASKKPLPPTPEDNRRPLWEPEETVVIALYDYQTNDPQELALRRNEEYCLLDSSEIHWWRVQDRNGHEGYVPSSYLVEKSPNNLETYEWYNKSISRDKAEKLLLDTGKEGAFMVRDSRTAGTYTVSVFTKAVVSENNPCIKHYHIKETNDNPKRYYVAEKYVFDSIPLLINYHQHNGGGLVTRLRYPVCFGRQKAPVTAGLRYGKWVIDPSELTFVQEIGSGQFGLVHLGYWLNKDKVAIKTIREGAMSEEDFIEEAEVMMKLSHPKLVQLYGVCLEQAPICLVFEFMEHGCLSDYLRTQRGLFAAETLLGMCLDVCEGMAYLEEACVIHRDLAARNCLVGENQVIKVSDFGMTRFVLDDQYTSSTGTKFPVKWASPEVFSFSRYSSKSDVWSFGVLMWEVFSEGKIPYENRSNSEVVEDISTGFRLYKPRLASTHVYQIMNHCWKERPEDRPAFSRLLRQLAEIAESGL

The Inhibition is the share of the control response that was lost under treatment. In the assay with CHED, `C=CC(=O)Nc1cc(Nc2nccc(-c3cn(C)c4ccccc34)n2)c(OC)cc1N(C)CCN(C)C` [Osimertinib, osimertinib, reference compound] displayed an Inhibition of 28.0%.

As usually defined, the IC50 is the midpoint of a concentration-inhibition curve. Take `C=CC(=O)Nc1cc(C(=O)Nc2nc3cccc(C)c3n2[C@@H]2CCCCN(C(=O)C=C)C2)cs1` [ZNL-0056]: the IC50 on BTK is 1.13 nM; at BLK, 3.17 nM; on EGFR L858R, 6.21 nM; at ITK, 7.81 nM; at JAK3, 5.79 nM. The “in vitro labeling of Cys797 and Cys775” value in the assay on EGFR^L858R kinase domain was “high in vitro labeling efficacy”.
